Assay results: patent US7300939B2, “Substituted 1-propiolylpiperazine compounds, their preparation and use” (Gruenenthal GmbH, priority 2005, dated 2007)

target: T1, mGluR5 receptor (Sus scrofa, UniProt I3LUI7); experiment: [3H]-MPEP binding in the mGluR5 receptor binding assay (pig brain homogenate); details: 10 μM; pig brain homogenate; 5 nM [3H]-MPEP
T1 construct: from tissue; host or cells: pig brain halves without medulla, cerebellum and pons
Experimental: I. Method the Determination of the Inhibition of the [^3H]-MPEP Binding in the mGluR5 Receptor Binding Assay
Pig brain homogenate is prepared by homogenization (Polytron PT 3000, Kinematica AG, 10,000 revolutions per minute 90 seconds) of pig brain halves without medulla, cerebellum and pons in a buffer solution having a pH of 8.0 (30 mM of hepes, Sigma, order no. H3375+1 tablet of Complete to 100 ml, Roche Diagnostics, order no. 1836145) in a ratio of 1:20 (brain weight/volume) and differential centrifugation at 900×g and 40,000×g. In each case 450 μg of protein from brain homogenate are incubated with 5 nM [^3H]-MPEP (Tocris, order no. R1212) (MPEP=2-methyl-6-(3-methoxyphenyl)ethynylpyridine) and the compounds to be investigated (10 μM in the test) in a buffer solution (as above) in 250 μl incubation batches in 96-well microtiter plates at room temperature 60 min.
Thereafter, the batches are filtered with the aid of a Brandel cell harvester (Brandel, Robotic 9600 model) onto Unifilter plates with glass fiber filter mats (Perkin Elmer, order no. 6005177) and then rinsed with buffer solution (as above) 3 times with 250 μl per sample each time. The filter plates are then dried 60 min at 55° C. 30 μl Ultima Gold™ scintillator (Packard BioScience, order no. 6013159) are subsequently added per well and, after 3 hours, the samples are measured on a β-counter (Mikrobeta, Perkin Elmer). The non-specific binding is determined by addition of 10 μM of MPEP (Tocris, order no. 1212).

T1 sequence (I3LUI7 19-1212): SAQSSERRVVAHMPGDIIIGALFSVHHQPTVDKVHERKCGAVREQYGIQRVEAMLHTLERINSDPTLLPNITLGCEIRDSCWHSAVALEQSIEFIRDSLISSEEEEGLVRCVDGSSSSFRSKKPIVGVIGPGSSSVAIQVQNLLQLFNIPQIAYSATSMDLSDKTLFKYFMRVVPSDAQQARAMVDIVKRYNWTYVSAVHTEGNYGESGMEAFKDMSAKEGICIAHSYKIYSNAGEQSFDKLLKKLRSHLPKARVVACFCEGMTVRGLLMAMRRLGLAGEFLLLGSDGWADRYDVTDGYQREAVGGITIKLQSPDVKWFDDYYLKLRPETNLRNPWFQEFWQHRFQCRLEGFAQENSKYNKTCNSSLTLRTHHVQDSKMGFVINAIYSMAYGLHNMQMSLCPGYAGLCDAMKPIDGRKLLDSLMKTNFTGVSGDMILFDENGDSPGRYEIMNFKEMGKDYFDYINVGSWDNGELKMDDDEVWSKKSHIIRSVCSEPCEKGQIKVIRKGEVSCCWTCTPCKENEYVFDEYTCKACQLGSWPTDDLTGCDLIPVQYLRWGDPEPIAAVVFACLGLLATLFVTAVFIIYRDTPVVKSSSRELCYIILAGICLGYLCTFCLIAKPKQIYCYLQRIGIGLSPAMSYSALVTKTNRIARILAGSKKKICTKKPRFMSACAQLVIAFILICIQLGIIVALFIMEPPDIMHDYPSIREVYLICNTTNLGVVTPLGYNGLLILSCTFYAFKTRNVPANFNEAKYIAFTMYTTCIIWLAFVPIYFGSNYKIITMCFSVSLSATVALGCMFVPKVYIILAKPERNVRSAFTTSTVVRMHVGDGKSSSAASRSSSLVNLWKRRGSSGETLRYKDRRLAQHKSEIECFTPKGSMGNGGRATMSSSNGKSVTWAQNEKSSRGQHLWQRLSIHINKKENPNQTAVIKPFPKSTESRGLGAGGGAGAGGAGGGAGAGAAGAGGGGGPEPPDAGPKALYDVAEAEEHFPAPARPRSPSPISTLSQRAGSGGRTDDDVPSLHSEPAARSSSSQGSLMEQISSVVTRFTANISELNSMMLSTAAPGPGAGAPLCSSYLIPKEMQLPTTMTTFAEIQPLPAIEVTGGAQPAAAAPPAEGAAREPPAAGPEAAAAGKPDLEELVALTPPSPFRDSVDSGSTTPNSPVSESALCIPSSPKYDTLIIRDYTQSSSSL

| Compound | mGluR5-receptor (% inhibition 10 μM) in pigs [%] |
| --- | --- |
| O=C(C#Cc1ccccc1F)N1CCN(c2nc(-c3ccccc3)ns2)CC1 [CCC3, 4-(3-Phenyl-1,2,4-thiadiazol-5-yl)-1-(3-(2-fluorophenyl)propiolyl)piperazine] | 28 |
| O=C(C#Cc1cccc(F)c1)N1CCN(c2nc(-c3ccccc3)ns2)CC1 [CCC4, 4-(3-Phenyl-1,2,4-thiadiazol-5-yl)-1-(3-(3-fluorophenyl)propiolyl)piperazine] | 59 |
| O=C(C#Cc1ccc(F)cc1)N1CCN(c2nc(-c3ccccc3)ns2)CC1 [CCC5, 4-(3-Phenyl-1,2,4-thiadiazol-5-yl)-1-(3-(4-fluorophenyl)propiolyl)piperazine] | 25 |
| Cc1ccccc1C#CC(=O)N1CCN(c2nc(-c3ccc(F)cc3)ns2)CC1 [CCC8, 4-(3-(4-Fluorophenyl)-1,2,4-thiadiazol-5-yl)-1-(3-(tol-2-yl)propiolyl)piperazine] | 25 |
| CC(C)(C)c1nsc(N2CCN(C(=O)C#Cc3cccs3)CC2)n1 [CCC16, 4-(3-tert-Butyl-1,2,4-thiadiazol-5-yl)-1-(3-(thiophen-2-yl)propiolyl)piperazine] | 33 |
| COc1ccc(Br)c(C#CC(=O)N2CCN(c3nccs3)CC2)c1 [CCC23, 4-(Thiazol-2-yl)-1-(3-(2-bromo-5-methoxyphenyl)propiolyl)piperazine] | 30 |
| Cc1cccc(C#CC(=O)N2CCN(c3nc(C)cs3)CC2)c1 [CCC31, 4-(4-Methylthiazol-2-yl)-1-(3-(tol-3-yl)propiolyl)piperazine] | 93 |
| Cc1ccc(C#CC(=O)N2CCN(c3ncc(C)s3)CC2)cc1 [CCC33, 4-(5-Methylthiazol-2-yl)-1-(3-(tol-4-yl)propiolyl)piperazine] | 43 |
| CCOC(=O)c1cccc(C#CC(=O)N2CCN(c3nccs3)CC2)c1 [Example AAA3, 4-(Thiazol-2-yl)-1-(3-(3-carboxyphenyl)propiolyl)piperazine ethyl ester] | 40 |
| O=C(C#Cc1ccc(O)cc1)N1CCN(c2nccs2)CC1 [Example AAA5, 4-(Thiazol-2-yl)-1-(3-(4-hydroxyphenyl)propiolyl)piperazine] | 35 |
| Nc1ccccc1C#CC(=O)N1CCN(c2nccs2)CC1 [Example AAA6, 4-(Thiazol-2-yl)-1-(3-(2-aminophenyl)propiolyl)piperazine] | 54 |
| Nc1cccc(C#CC(=O)N2CCN(c3nccs3)CC2)c1 [Example AAA7, 4-(Thiazol-2-yl)-1-(3-(3-aminophenyl)propiolyl)piperazine] | 91 |

same assay, conditions: Table II; unit inferred

| Compound | IC50 [nM] |
| --- | --- |
| Cc1csc(C#CC(=O)N2CCN(c3nccs3)CC2)c1 [AAA00118, 4-(Thiazol-2-yl)-1-(3-(4-methylthiophen-2-yl)propiolyl)piperazine] | 93 |
| CC1CN(c2nccs2)CCN1C(=O)C#Cc1cccc(Cl)c1 (stereo not drawn) [AAA00119, 2-Methyl-4-(thiazol-2-yl)-1-(3-(3-chlorophenyl)propiolyl)piperazine] | 9 |
| CC(C)(C)C1CN(c2nccs2)CCN1C(=O)C#Cc1ccccc1 (stereo not drawn) [AAA00121, 2-tert-Butyl-4-(thiazol-2-yl)-1-(3-phenylpropiolyl)piperazine] | 110 |
| CC1CN(c2nccs2)CCN1C(=O)C#Cc1cccc(C#N)c1 (stereo not drawn) [AAA00123, 2-Methyl-4-(thiazol-2-yl)-1-(3-(3-cyanophenyl)propiolyl)piperazine] | 19 |
| O=C(C#Cc1ccc(F)cc1F)N1CCN(c2nccs2)CC1 [CCC22, 4-(Thiazol-2-yl)-1-(3-(2,4-difluorophenyl)propiolyl)piperazine] | 10500 |
| O=C(C#Cc1ccccc1O)N1CCN(c2nccs2)CC1 [Example AAA4, 4-(Thiazol-2-yl)-1-(3-(2-hydroxyphenyl)propiolyl)piperazine] | 450 |
